pEC50: −log10 of the molar value.
Legend:
hM2-5 = assay: Muscarinic selectivity, human M2-5; format: cell-based
Protocol: Procedures for Biological Experiments
Calcium mobilization assays:
All functional cell-based assays were performed in stable Chinese Hamster Ovary (CHO) cell lines constitutively expressing human M5 or human M1 receptors. For full muscarinic selectivity, CHO cells expressing human M3, human M2 plus Gqi5 or human M4 plus Gqi5 were used. Cells were plated at 15,000 cells per 20 µL per well in black 384-well, TC-treated, clear-bottomed plates (Greiner) in Ham’s F12 medium supplemented with 10% FBS and 20 mM HEPES. Cells were incubated overnight at 37 °C under 5% CO2. The following day, the medium was removed and replaced with 1.2 µM Fluo-4 AM (Invitrogen) in assay buffer (Hank’s Balanced Salt Solution supplemented with 20 mM HEPES and 2.5 mM Probenecid, pH 7.4) and the cells were incubated for 50 minutes at 37 °C under 5% CO2. Dye was then removed and replaced with 20 µL of fresh assay buffer. Test compounds at a 10 mM concentration in DMSO were serially diluted in DMSO (either 1:3 or 1:5 dilution) to create a 10-point concentration series. The DMSO solutions were then diluted in assay buffer resulting in compound solutions at 2-times the final assay concentration with the highest assay concentration of 30 µM. The compound plate, cell plate, and plates containing EC20 and EC80 acetylcholine concentrations were placed in a Hamamatsu FDSS 6000 or 7000 kinetic imaging plate reader equipped to measure Ex480/Em540 fluorescence. Data were collected at 1 frame per second. After 2 seconds of collecting baseline fluorescence, 20 µL of the compound solutions were added to the cell plate. This was followed by the addition of an EC20 concentration of acetylcholine at 142 seconds. […] The fluorescence signal was collected for a total of 300 seconds. […] Data were imported and analyzed in Dotmatics Informatics software. by normalizing all data in the individual kinetic traces to the initial fluorescence read. The magnitude of each agonist addition was then determined and normalized to the average maximum response. […] The IC50 determined using the EC80 of acetylcholine is the value reported. […]

[1] = Predicted hepatic clearance, rat hepatic microsomes; format: in vitro ADME
Protocol: Intrinsic clearance: Human or rat hepatic microsomes (0.5 mg/mL) and 1 µM test compound were incubated in 100 mM potassium phosphate pH 7.4 buffer with 3 mM MgCl2 at 37 °C with constant shaking. After a 5 min preincubation, the reaction was initiated by the addition of NADPH (1 mM). At selected time intervals (0, 3, 7, 15, 25, and 45 min), aliquots were taken and subsequently placed into a 96-well plate containing cold acetonitrile with internal standard (50 ng/mL carbamazepine). Plates were then centrifuged at 3000 rcf (4 °C) for 10 min, and the supernatant was transferred to a separate 96-well plate and diluted 1:1 with water for LC/MS/MS analysis. The in vitro half-life ( 1/2, min, Eq. 1), intrinsic clearance (CLint, mL/min/kg, Eq. 2), and subsequent predicted hepatic clearance (CLhep, mL/min/kg, Eq. 3) was determined employing the […]
where k represents the slope from linear regression analysis of the natural log percent remaining of a test compound as a function of incubation time […]
(2) CLint = in vitroT1/2 x mg microsomes x gram liver x kg body wt ascale-up factors: of 20 (human) or 45 (rat) […]
where Qh (hepatic blood flow, mL/min/kg) is 21 (human) or 70 (rat).
LC/MS/MS Bioanalysis of Samples from Plasma Protein Binding and Intrinsic Clearance […]
Samples were analyzed on a Thermo Electron TSQ Quantum Ultra triple quad mass spectrometer (San Jose, CA) via electrospray ionization (ESI) with two Themo Electron Accella pumps (San Jose, CA), and a Leap Technologies CTC PAL autosampler (Carrboro, NC). Analytes were separated by gradient elution on a dual column system with two Thermo Hypersil Gold (2.1 x 30 mm, 1.9 µm) columns (San Jose, CA) thermostated at 40 °C. HPLC mobile phase A was 0.1% formic acid in water and mobile phase B was 0.1% formic acid in acetonitrile. The gradient started […]
for 0.2 min; returned to 10% B in 0.1 min. The total run time was 1.3 min and the HPLC flow rate was 0.8 mL/min. […]

[2] = Plasma protein binding, human; format: in vitro ADME; conditions: pH 7.4, read-out: fu,plasma human
Protocol: Plasma protein binding and Brain homogenate binding: Determination of fraction unbound (f u) in plasma was conducted in vitro via equilibrium dialysis using HTDialysis (HTD) membrane plates. The top half of the plate was filled with 100 uL of Dubelco’s Phosphate Buffered Saline, pH 7.4 (DPBS). Compounds were diluted into plasma from each species (5 µM final concentration), which was aliquoted in triplicate to the ‘bottom half’ of the prepared HTD plate wells. The HTD plate was sealed and incubated for 6 hours at 37 °C. Following incubation, each well (both top and bottom halves) were transferred (20 µL) to the corresponding wells of a 96-shallow-well (V-bottom) plate. The daughter plates were then matrix-matched (DPBS side wells received equal volume of plasma, and plasma side wells received equal volume of DPBS), and extraction solution (120 µL; acetonitrile containing 50 nM carbamazepine as IS) was added to all wells of both daughter plates to precipitate protein and extract test article. The plates were then sealed and centrifuged (3500 rcf) for 10 minutes at ambient temperature. Supernatant (60 µL) from each well of the daughter plates was then transferred to the corresponding wells of new daughter plates (96-shallow-well, V bottom) containing water (Milli-Q, 60 µL/well), and the plates were sealed in preparation for LC-MS/MS analysis (see LC-MS/MS analysis method below).
The unbound fraction (f u) was calculated following the equation below, and mean values for each species were calculated from 3 replicates. […]
Fraction unbound for both plasma and brain samples was determined using Equation 4.
Equation 4 Determination of fraction unbound in plasma.

Compound	pEC50 (hM2-5)	Predicted CLhep, rat [1] [mL/min/kg]	fraction unbound at 6 h, 5 µM [2]	activity on human M2–5 (hM2-5)
Cn1ccc(-c2ccc(Cc3cc(C(=O)NC4CCOCC4)nc4ccn(C)c34)cc2)n1 [compound 11]	< 4.52	38	0.016	–
Cn1ccc(-c2ccc(Cc3cc(C(=O)NC4CCOCC4)nc4ccsc34)cc2)n1 [compound 12]	< 4.52	33	0.005	–
Cn1ccc2nc(C(=O)NC3CCOCC3)cc(Cc3ccc(-c4cc[nH]n4)cc3)c21 [compound 24]	–	44	0.047	inactive
